These results are taken from publication PMC7470163, “Effects of ticagrelor on the pharmacokinetics of rivaroxaban in rats” (Pharmaceutical Biology, 2020).

Data set [1] is described as follows: Enzyme kinetics of rivaroxaban metabolism in rat liver microsomes. The settings on record: Sprague-Dawley, rat, rat liver microsomes, pH 7.4, RLMs 0.5 mg/mL, 37 °C, 1 mM NADPH, R squared 0.979. The class given is in vitro ADME, Sprague-Dawley rat. On the procedure: (§1) The pooled rat liver microsomes (RLMs) were obtained from 8 rats, which were weighed and homogenized with cold […] phosphate-buffered saline (PBS) containing 0.25 mM sucrose. After centrifuging at 11000 rpm for 15 min, the supernatants were separated and transferred into new tubes for another 15 min centrifugation at 11000 rpm. Then ultracentrifugation was performed at 10000 rpm at 4 °C for 1 h, and the microsomal pellets were resuspended with cold 0.01 mM PBS and stored at −80 °C. The protein concentration of RLMs was determined using the Bradford Protein Assay Kit (Thermo Scientific, Waltham, MA, USA). […] The incubation time was 30 min. Incubations were initiated following a 5 min pre-incubation in a shaking water bath at 37 °C. 1 mM NADPH was added to initiate the reaction in a final volume of 200 μL. The reaction was stopped immediately by cooling to −80 °C. After that, 20 μL IS working solution and 200 μL acetonitrile were added. Centrifugation was performed at 13000 rpm for 5 min after vortexing for 1 min, and the supernatant was collected. Each incubation sample study was performed in separate EP tubes, performed in triplicate and analysed by UPLC-MS/MS. We selected 2 μL of RLMs with a concentration of 0.5 mg/mL in PBS for 30 minutes as the condition for enzyme kinetic studies. […]

The subject of data set [2] is rat liver microsomes (RLMs). The description is as above. The class given is in vitro ADME, Sprague-Dawley rat. The settings on record: RLMs 0.5 mg/mL, 30 min, 37 °C, 1 mM NADPH, R squared 0.979. As for the experimental part:
as §1

Data set [3] relates to CYP2J2. More on the design: method as in Kvasnicka et al. [2017]. The settings on record: ref Kvasnicka et al. [2017]; cited from earlier work.

As usually defined, the Km is the substrate concentration at which the rate is half of its maximum. For orientation: Vmax means the top rate of the reaction or transport when substrate is in excess. Consider `O=C(NC[C@H]1CN(c2ccc(N3CCOCC3=O)cc2)C(=O)O1)c1ccc(Cl)s1` [Rivaroxaban], for which, in data set [1], the Km at 30 min is 19.1 µM. In addition, the Vmax in data set [2] turned out to be 3.37 pmol/min/mg. Further, the “share of total rivaroxaban elimination involving CYP2J2” value in data set [3] is on record as “about 14%”.
